Among the data in patent US8026257B2 (Bristol-Myers Squibb Company, priority 2007, dated 2011) are IC50 values, retold here.

Where a name gives a salt, the structure may show the parent alone. Read-outs that look alike come from different tables or passages of the source.

The target of one assay is T1, NK-1 (Homo sapiens, UniProt P25103).
T1 construct: 30 ul/well of a 2×U373 membrane preparation
Nature of the assay: NK1 radioligand binding assay ([125I]Substance P, U373 membranes). The following applies: U373 cell membranes, 200 pM [125I]Substance P, 1 hour at room temperature. The protocol: (§1) NK-1 Binding assay. Crude membrane suspensions were prepared for the NK1 and SERT radioligand binding assays from U373 cells or recombinant HEK-293 cells expressing hSERT, respectively. Cells were harvested from T-175 flasks as follows. The medium is removed from the flasks and the cells rinsed with HBSS without Ca and without Mg. The cells are then incubated for 5-10 minutes in 10 mM Tris-Cl, pH 7.5, 5 mM EDTA before the cells are lifted with a combination of pipetting and scraping, as needed. To prepare membranes, the cell suspension is collected into centrifuge bottles and homogenized for 30 seconds with a Polytron homogenizer. The suspension is centrifuged for 30 min@32,000×g, 4° C., then the supernatant is decanted and the pellet resuspended and homogenized in 50 mM Tris-Cl, pH 7.5, 1 mM EDTA for 10 seconds. The suspension is then centrifuged again for 30 min@32,000×g, 4° C. The supernatant is decanted and the pellet resuspended in 50 mM Tris-Cl, pH 7.5, 1 mM EDTA and briefly homogenized. A Bradford assay (Bio-rad) is performed and the membrane preparation diluted to 2 mg/ml with 50 mM Tris-Cl, pH 7.5, 1 mM EDTA. Aliquots are prepared, and then frozen and stored at −80° C.
NK1 radioligand binding assay. Compounds are dissolved in 100% DMSO at a concentration 100× the desired highest assay concentration, serially diluted 1:3 in 100% DMSO, and 0.6 ul/well of each solution is dispensed to a Nunc polypropylene, round bottom, 384 well plate. 100% inhibition is defined with 0.6 ul/well of 1 mM L-733,060 (Sigma L-137) dissolved in DMSO. 30 ul/well of a 2×U373 membrane preparation (267 ug/ml in 100 mM Tris-Cl, pH 7.5, 6 mM MgCl2, 0.2% (v/v) Sigma mammalian protease inhibitor cocktail (Sigma P-8340), and 4 ug/ml chymostatin, Sigma C-7268) and 30 ul/well of a 2× radioligand solution (400 pM [^125I]Substance P (Perkin ElmerNEX-190) in 1% (w/v) BSA (Sigma A-2153), 0.1 mg/ml bacitracin, Sigma B-0125) are added to the well and the reaction incubated for 1 hour at room temperature. The contents of the assay plate are then transferred to a Millipore MultiscreenHTS GF/B filter plate which has been pretreated with 0.5% PEI for at least one hour. The plate is vacuum filtered and washed with 7 washes of 100 ul/well of 20 mM Tris-Cl, pH 7.5, 0.5% (w/v) BSA chilled to 4° C. The filtration and washing is completed in less than 90 s. The plates are air-dried overnight, 12 ul/well of MicroScint scintillation fluid added, and the plates counted in a Trilux.
(§2) Data analysis. The raw data are normalized to percent inhibition using control wells defining 0% (DMSO only) and 100% (selective inhibitor) inhibition which are run on each plate. Each plate is run in triplicate, and the concentration response curve thus generated is fit using the four-parameter dose response equation, Y=Bottom+(Top-Bottom)/(1+10^((LogIC50−X)*HillSlope)) in order to determine the IC50 value for each compound. The radioligand concentration chosen for each assay corresponds to the Kd concentration determined through saturation binding analysis for each assay.

A further assay concerns the target hSERT (Homo sapiens, UniProt P31645). Nature of the assay: SERT radioligand binding assay ([125I]RTI-55, HEK-hSERT membranes). The following applies: HEK-293 hSERT membranes, 260 pM [125I]RTI-55, 1 hour at room temperature. The protocol: as §1
SERT radioligand binding assay. Compounds are dissolved in 100% DMSO at a concentration 100× the desired highest assay concentration, serially diluted 1:3 in 100% DMSO, and 0.4 ul/well of each solution is dispensed to a Nunc polypropylene, round bottom, 384 well plate. 100% inhibition is defined with 0.4 ul/well of 1 mM fluoxetine (Sigma F-132) dissolved in DMSO. 20 ul/well of a 2× HEK-hSERT membrane preparation (15 ug/ml in 50 mM Tris-Cl, pH 7.5, 120 mM NaCl, 5mM KCl) and 20 ul/well of a 2× radioligand solution (520 pM [^125I]RTI-55 (Perkin-Elmer NEX-272) in 50 mM Tris-Cl, pH 7.5, 120 mM NaCl, 5mM KCl) are added to each well and the reaction incubated for 1 hour at room temperature. The contents of the assay plate are then transferred to a Millipore MultiscreenHTs GF/B filter plate which has been pretreated with 0.5% PEI for at least one hour. The plate is vacuum filtered and washed with 7 washes of 100 ul/well of 50 mM Tris-Cl, pH 7.5, 120 mM NaCl, 5 mM KCl chilled to 4° C. The filtration and washing is completed in less than 90 s. The plates are air-dried overnight, 12 ul/well of MicroScint scintillation fluid added, and the plates counted in a Trilux.
as §2

Sequence of hSERT (P31645 whole entry): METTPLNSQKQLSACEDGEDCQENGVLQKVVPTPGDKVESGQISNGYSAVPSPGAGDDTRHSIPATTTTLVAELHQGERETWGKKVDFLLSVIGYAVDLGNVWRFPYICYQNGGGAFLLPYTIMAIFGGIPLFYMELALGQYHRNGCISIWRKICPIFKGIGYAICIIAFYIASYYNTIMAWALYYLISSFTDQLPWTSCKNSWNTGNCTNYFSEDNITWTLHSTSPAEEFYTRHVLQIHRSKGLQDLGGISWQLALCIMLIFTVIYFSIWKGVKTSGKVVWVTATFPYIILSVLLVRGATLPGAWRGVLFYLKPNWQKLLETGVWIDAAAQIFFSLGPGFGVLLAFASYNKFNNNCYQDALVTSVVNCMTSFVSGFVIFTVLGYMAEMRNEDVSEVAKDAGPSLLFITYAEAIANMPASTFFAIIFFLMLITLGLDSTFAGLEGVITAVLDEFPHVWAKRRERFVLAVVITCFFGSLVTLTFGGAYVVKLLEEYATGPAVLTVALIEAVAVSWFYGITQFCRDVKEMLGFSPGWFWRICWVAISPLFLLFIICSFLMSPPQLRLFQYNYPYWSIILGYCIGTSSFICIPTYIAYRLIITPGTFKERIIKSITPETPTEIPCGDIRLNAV
T1 sequence (P25103 whole entry): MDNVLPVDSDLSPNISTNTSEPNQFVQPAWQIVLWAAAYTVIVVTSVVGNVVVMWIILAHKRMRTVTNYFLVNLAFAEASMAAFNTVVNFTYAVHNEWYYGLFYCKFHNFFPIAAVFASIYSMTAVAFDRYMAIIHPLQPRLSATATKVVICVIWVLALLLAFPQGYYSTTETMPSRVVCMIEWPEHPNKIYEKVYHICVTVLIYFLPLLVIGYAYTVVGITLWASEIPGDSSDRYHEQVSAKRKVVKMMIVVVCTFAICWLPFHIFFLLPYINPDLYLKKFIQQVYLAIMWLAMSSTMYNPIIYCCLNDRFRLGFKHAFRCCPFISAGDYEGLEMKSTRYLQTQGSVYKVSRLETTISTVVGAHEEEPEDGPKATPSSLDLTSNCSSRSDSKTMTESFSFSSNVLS

With `Cc1c[nH]c2c(C(C)OCC3(c4ccc(F)cc4)CCN(C)CC3)cc(C(F)(F)F)cc12` (racemic) [Example 126, (±)-7-(1-((4-(4-fluorophenyl)-1-methylpiperidin-4-yl)methoxy)ethyl)-3-methyl-5-(trifluoromethyl)-1H-indole], the IC50 at NK-1 and on hSERT (read-out: SERT IC50) was 0.01 to 100 nM each time.

With `CC(OCC1(c2ccc(F)cc2)CCN(C)CC1)c1cc(C(F)(F)F)cc2c1ccn2C` (racemic) [Example 127, (±)-4-(1-((4-(4-fluorophenyl)-1-methylpiperidin-4-yl)methoxy)ethyl)-1-methyl-6-(trifluoromethyl)-1H-indole], the IC50 at NK-1 and at hSERT (read-out: SERT IC50) was 0.01 to 100 nM each time.

As for `CC(OCC1(c2ccc(F)cc2)CCN(C)CC1)c1cc(C(F)(F)F)cc2[nH]ccc12` (racemic) [Example 128, (±)-4-(1-((4-(4-fluorophenyl)-1-methylpiperidin-4-yl)methoxy)ethyl)-6-(trifluoromethyl)-1H-indole], the IC50 on NK-1 and at hSERT (read-out: SERT IC50) was 0.01 to 100 nM throughout.

As to `CC(OCC1(c2ccc(F)cc2)CCNCC1)c1cc(C(F)(F)F)cc2c1CC(=O)N2` (racemic) [Example 129, (±)-4-(1-((4-(4-fluorophenyl)piperidin-4-yl)methoxy)ethyl)-6-(trifluoromethyl)indolin-2-one, TFA], the half-maximal inhibitory concentration (IC50) on NK-1 was in the range of 100 to 300 nM; at hSERT (read-out: SERT IC50), 0.01 to 100 nM.

With `CC(OCC1(c2ccc(F)cc2)CCNCC1)c1cc(C(F)(F)F)cc2cn[nH]c12` (single isomer, unassigned) [Example 22, 7-(1-((4-(4-Fluorophenyl)piperidin-4-yl)methoxy)ethyl)-5-(trifluoromethyl)-1H-indazole], the values for the IC50 on NK-1 and at hSERT (read-out: SERT IC50) were 100 to 300 nM and 0.01 to 100 nM, respectively.

On to `CC(OCC1(c2ccc(F)cc2)CCN(C)CC1)c1cc(C(F)(F)F)cc2cn[nH]c12` (single isomer, unassigned) [Example 23, 7-(1-((4-(4-Fluorophenyl)-1-methylpiperidin-4-yl)methoxy)ethyl)-5-(trifluoromethyl)-1H-indazole], for which the concentration for half-maximal inhibition (IC50) at NK-1 lay within 100 to 300 nM; at hSERT (read-out: SERT IC50), 0.01 to 100 nM.

With `CC(OCC1(c2ccc(F)cc2)CCNCC1)c1cc(C(F)(F)F)cc2cn[nH]c12` (single isomer, unassigned) [Example 24, 7-(1-((4-(4-Fluorophenyl)piperidin-4-yl)methoxy)ethyl)-5-(trifluoromethyl)-1H-indazole], the IC50 on NK-1 and on hSERT (read-out: SERT IC50) was 0.01 to 100 nM in each case.

With `CC(OCC1(c2ccc(F)cc2)CCN(C)CC1)c1cc(C(F)(F)F)cc2cn[nH]c12` (single isomer, unassigned) [Example 25, 7-(1-((4-(4-Fluorophenyl)-1-methylpiperidin-4-yl)methoxy)ethyl)-5-(trifluoromethyl)-1H-indazole], the IC50 on NK-1 and at hSERT (read-out: SERT IC50) was 0.01 to 100 nM throughout.

On to `CC(OCC1(c2ccc(F)cc2)CCNCC1)c1cc(C(F)(F)F)cc2cnn(C)c12` (single isomer, unassigned) [Example 26, 7-(1-((4-(4-Fluorophenyl)piperidin-4-yl)methoxy)ethyl)-1-methyl-5-(trifluoromethyl)-1H-indazole], for which the results for the IC50 on NK-1 and on hSERT (read-out: SERT IC50) were 100 to 300 nM and 0.01 to 100 nM, respectively.

As for `CC(OCC1(c2ccc(F)cc2)CCN(C)CC1)c1cc(C(F)(F)F)cc2cnn(C)c12` (single isomer, unassigned) [Example 27, 7-(1-((4-(4-Fluorophenyl)-1-methylpiperidin-4-yl)methoxy)ethyl)-1-methyl-5-(trifluoromethyl)-1H-indazole], the 50% inhibitory concentration (IC50) was 100 to 300 nM at NK-1 and 0.01 to 100 nM at hSERT (read-out: SERT IC50).

With `CC(OCC1(c2ccc(F)cc2)CCNCC1)c1cc(C(F)(F)F)cc2cn(C)nc12` (single isomer, unassigned) [Example 28, 7-(1-((4-(4-Fluorophenyl)piperidin-4-yl)methoxy)ethyl)-2-methyl-5-(trifluoromethyl)-2H-indazole], the values for the IC50 at NK-1 and at hSERT (read-out: SERT IC50) were more than 300 nM and 100 to 300 nM, respectively.

`CC(OCC1(c2ccc(F)cc2)CCN(C)CC1)c1cc(C(F)(F)F)cc2cn(C)nc12` (single isomer, unassigned) [Example 29, 7-(1-((4-(4-Fluorophenyl)-1-methylpiperidin-4-yl)methoxy)ethyl)-2-methyl-5-(trifluoromethyl)-2H-indazole]: the half-maximal inhibitory concentration (IC50) was more than 300 nM at NK-1 and 0.01 to 100 nM at hSERT (read-out: SERT IC50).

For `CC(OCC1(c2ccc(F)cc2)CCNCC1)c1cc(C(F)(F)F)cc2cnn(C)c12` (single isomer, unassigned) [Example 30, 7-(1-((4-(4-Fluorophenyl)piperidin-4-yl)methoxy)ethyl)-1-methyl-5-(trifluoromethyl)-1H-indazole], the IC50 on NK-1 and on hSERT (read-out: SERT IC50) was 0.01 to 100 nM in each case.

As to `CC(OCC1(c2ccc(F)cc2)CCN(C)CC1)c1cc(C(F)(F)F)cc2cnn(C)c12` (single isomer, unassigned) [Example 31, 7-(1-((4-(4-Fluorophenyl)-1-methylpiperidin-4-yl)methoxy)ethyl)-1-methyl-5-(trifluoromethyl)-1H-indazole], the IC50 on NK-1 and on hSERT (read-out: SERT IC50) was 0.01 to 100 nM throughout.

As for `CC(OCC1(c2ccc(F)cc2)CCNCC1)c1cc(C(F)(F)F)cc2cn(C)nc12` (single isomer, unassigned) [Example 32, 7-(1-((4-(4-Fluorophenyl)piperidin-4-yl)methoxy)ethyl)-2-methyl-5-(trifluoromethyl)-2H-indazole], the half-maximal inhibitory concentration (IC50) at NK-1 and at hSERT (read-out: SERT IC50) was 0.01 to 100 nM in each case.

`CC(OCC1(c2ccc(F)cc2)CCN(C)CC1)c1cc(C(F)(F)F)cc2cn(C)nc12` (single isomer, unassigned) [Example 33, 7-(1-((4-(4-Fluorophenyl)-1-methylpiperidin-4-yl)methoxy)ethyl)-2-methyl-5-(trifluoromethyl)-2H-indazole]: the half-inhibitory concentration (IC50) on NK-1 and at hSERT (read-out: SERT IC50) was 0.01 to 100 nM each time.

`CC(OCC1(c2ccc(F)cc2)CCN(C)CC1)c1cc(C2CC2)cc2c(Cl)n[nH]c12` (single isomer, unassigned) [Example 54]: the half-maximal inhibitory concentration (IC50) on NK-1 and at hSERT (SERT IC50 (nM)) was 0.01 to 100 nM throughout.

For `CC(OCC1(c2ccc(F)cc2)CCN(C)CC1)c1cc(C(F)(F)F)cc2ccn(C)c12` (single isomer, unassigned) [Example 74, 7-(1-((4-(4-Fluorophenyl)-1-methylpiperidin-4-yl)methoxy)ethyl)-1-methyl-5-(trifluoromethyl)-1H-indole], the half-inhibitory concentration (IC50) at NK-1 was more than 300 nM; at hSERT (read-out: SERT IC50), 100 to 300 nM.

As for `CC(OCC1(c2ccc(F)cc2)CCN(C)CC1)c1cc(C(F)(F)F)cc2ccn(C)c12` (single isomer, unassigned) [Example 75, 7-(1-((4-(4-Fluorophenyl)-1-methylpiperidin-4-yl)methoxy)ethyl)-1-methyl-5-(trifluoromethyl)-1H-indole], the IC50 at NK-1 and on hSERT (read-out: SERT IC50) was 0.01 to 100 nM each time.

The IC50 is the midpoint of a concentration-inhibition curve.
